Assay results as given in PMC4913735, “Non‐glycosidic compounds can stimulate both human and mouse iNKT cells” (European Journal of Immunology, 2016).

What was measured:
[1] = test system: EG7 cells (OVA‐expressing EL4); experiment: Injection of OVA plus iNKT‐cell agonist in EG7 tumor‐bearing mice; type: in vivo; conditions: 1 μg lipid i.v. with OVA, 4 days after EG7 s.c.; for OVA‐specific CD8+ T cells in blood (tetramer) in tumor‐bearing mice: bled 7 days later
Procedure: To test the functional consequences of iNKT‐cell‐induced DC maturation (Fig. 1E and Supporting Information Fig. 1) and to assess whether iNKT‐cell activation mediated by the injection of either ThrCer 6 or ThrCer 7 could lead to cross‐presentation of peptides derived from soluble antigenic proteins, mice were injected with the tumor cell line EL4 encoding the full‐length OVA and then 4 days later were immunized i.v. with full‐length OVA together with 1 μg of non‐glycosidic iNKT‐cell agonists. As a control, mice were injected with α‐GalCer with full‐length OVA. Seven days later, OVA‐specific CD8^+ T‐cells were detected in the blood by H‐2 K^b/OVA257–264 tetramer staining of CD8^+ T cells.
Figure 4 Injection of ThrCer 6 with OVA into tumor‐bearing mice results in tumor regression. Mice (n = 4–6) were injected s.c. with OVA‐expressing EL4 cells (EG7 cells). Four days later mice were injected i.v. with OVA protein together with either vehicle or 1 μg of the indicated iNKT‐cell agonist. (A) Seven days later mice were bled and the number of H‐2K^b 257‐264 tetramer^+ cells was assessed by FACS analysis. (B) The size of the tumor was subsequently measured regularly using calipers and expressed as surface area. The arrow indicates the timing of the injection of soluble OVA plus iNKT‐cell agonists. (A and B) Data are shown as mean ± SEM and are representative of two independent experiments.
Mice (n = 4–6) were injected subcutaneously (s.c.) with 1 × 10^6 EG7 cells (a derivative of the thymoma EL4, expressing the OVA protein). Four days later mice were injected i.v. with 800 μg OVA together with either vehicle or 1 μg of the indicated iNKT‐cell agonist. Seven days later mice were bled and the number of H‐2K^b 257–264 tetramer^+ cells was assessed by FACS analysis. The size of the tumor was subsequently measured regularly using calipers and expressed as surface area.

[2] = target: human iNKT‐cell TCR (Homo sapiens, UniProt A0A0B4J240+P15813); experiment: SPR (BIAcore) binding of soluble human iNKT‐cell TCR to hCD1d/lipid complexes; conditions: for Kd: SPR equilibrium binding, hCD1d refolded with lipid, read-out: K d, human iNKT‐cell TCR binding to hCD1d/lipid complex; for koff: SPR kinetics experiment, read-out: k off, human iNKT‐cell TCR from hCD1d/lipid complex
Sequence of human iNKT‐cell TCR (P01848 1-93): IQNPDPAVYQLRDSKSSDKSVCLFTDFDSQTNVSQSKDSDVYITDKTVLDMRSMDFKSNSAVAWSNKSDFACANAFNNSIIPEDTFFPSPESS
Sequence of human iNKT‐cell TCR (P61769 21-119, further chain): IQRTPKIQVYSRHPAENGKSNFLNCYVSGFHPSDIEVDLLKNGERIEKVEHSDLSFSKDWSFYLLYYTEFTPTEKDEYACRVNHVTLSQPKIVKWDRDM
Sequence of human iNKT‐cell TCR (A0A0B4J240 22-114): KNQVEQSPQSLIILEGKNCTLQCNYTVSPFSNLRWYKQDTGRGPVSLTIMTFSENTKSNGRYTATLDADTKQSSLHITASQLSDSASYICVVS
Sequence of human iNKT‐cell TCR (P01850 1-129, further chain): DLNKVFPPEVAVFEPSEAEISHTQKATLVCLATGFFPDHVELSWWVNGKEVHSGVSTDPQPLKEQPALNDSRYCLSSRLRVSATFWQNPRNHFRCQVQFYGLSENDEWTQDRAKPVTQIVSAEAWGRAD
Sequence of human iNKT‐cell TCR (P15813 20-301): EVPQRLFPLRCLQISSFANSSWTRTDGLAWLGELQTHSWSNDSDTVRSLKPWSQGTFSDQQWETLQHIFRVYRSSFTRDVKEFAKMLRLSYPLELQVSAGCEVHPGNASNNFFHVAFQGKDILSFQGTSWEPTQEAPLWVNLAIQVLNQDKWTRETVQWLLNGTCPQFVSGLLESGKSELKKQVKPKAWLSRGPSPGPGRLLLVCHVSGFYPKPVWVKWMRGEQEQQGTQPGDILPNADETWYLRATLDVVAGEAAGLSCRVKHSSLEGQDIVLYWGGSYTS
Procedure: Two analogs of ThrCer, ThrCer 6, and ThrCer 7 were synthesized. […] We first carried out measurements to assess the binding affinity of these ThrCer analogs to human iNKT‐cell TCR (Fig. 1B). Recombinant human CD1d (hCD1d) molecules were refolded in vitro with ThrCer 6 and ThrCer 7 separately and coupled to BIAcore chips, over which refolded human iNKT‐cell TCR was injected at different concentrations 34. […] Importantly, these findings were consistent with data obtained using tetrameric human iNKT‐cell TCRs as a staining reagent to identify lipid/CD1d complexes on the surface of C1R cells that had been transfected with hCD1d cDNA (hCD1d C1R cells) and subsequently loaded with the different lipids 34 (Fig. 1C).
(§1) Soluble human invariant TCR was generated as previously described 34 where both the Vα24 and Vβ11 chains were individually overexpressed in Escherichia coli, purified from the inclusion bodies, then refolded, and purified to generate the TCR heterodimers, according to Boulter et al. 43. The murine TCR was generated according to Pellici et al. as a chimeric molecule (with variable murine regions and human constant regions) 44. The hybrid alpha chains and beta chains were individually expressed in E. coli and purified from the inclusion bodies, then refolded as above.
(§2) SPR experiments were performed with a BIAcore 3000 to measure the affinity and kinetics of iNKT‐cell TCR binding to human CD1d–ligand complexes. In brief, approximately 1000 RU of the biotinylated hCD1d–lipid complexes were immobilized onto streptavidin‐coated CM5 sensor chips (BIAcore). Aliquots of purified TCR with increasing concentrations were passed over immobilized hCD1d–lipid complex at a flow rate of 10 μL/min for the equilibrium‐binding experiments or 50 μL/min for the kinetics experiments. The dissociation constants, K d, were calculated by fitting the data from the equilibrium‐binding experiment to a non‐linear regression saturation binding model (GraphPad Prism 5.0), whereas the k off data were estimated from the kinetics experiments by fitting the data with the built‐in models of the BIAeval3.1 software (BIAcore).

[3] = target: murine Vα14/Vβ8 iNKT‐cell TCR (Mus musculus, UniProt P11609+Z9CWY5XBV8); experiment: SPR binding of soluble murine iNKT‐cell TCR to mCD1d/lipid complexes; conditions: for Kd: SPR equilibrium binding, mCD1d loaded with lipid, read-out: K d, murine iNKT‐cell TCR binding to mCD1d/lipid complex
Sequence of murine Vα14/Vβ8 iNKT‐cell TCR (P11609 whole entry, looked up, other chains not shown): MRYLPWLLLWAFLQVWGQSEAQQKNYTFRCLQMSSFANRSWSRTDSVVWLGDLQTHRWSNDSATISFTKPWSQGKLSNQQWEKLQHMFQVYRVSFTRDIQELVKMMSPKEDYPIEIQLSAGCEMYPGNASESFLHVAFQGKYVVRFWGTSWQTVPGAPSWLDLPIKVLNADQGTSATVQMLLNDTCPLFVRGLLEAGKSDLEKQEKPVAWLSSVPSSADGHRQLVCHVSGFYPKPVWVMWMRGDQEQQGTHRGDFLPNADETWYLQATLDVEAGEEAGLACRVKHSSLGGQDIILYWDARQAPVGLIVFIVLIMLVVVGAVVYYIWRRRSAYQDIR
From the text: In order to extend the analysis of the ability of ThrCer analogs to activate iNKT‐cells in vivo, we assessed their ability to promote a response in a murine model. First, we performed binding assays using in vitro‐loaded murine recombinant CD1d (mCD1d) molecules and in vitro‐refolded murine Vα14/Vβ8 iNKT‐cell TCR.
as §1, §2

[4] = test system: human iNKT cells; experiment: Human iNKT‐cell activation by lipid‐pulsed hCD1d C1R cells, IFN‐γ ELISA; type: cell-based; conditions: compared with α‐GalCer; particularly below 1 ng/mL
Procedure: To this end, hCD1d‐expressing C1R cells were loaded overnight with serial dilutions of lipids (α‐GalCer, ThrCer, ThrCer 6, and ThrCer 7) and then incubated with human iNKT cells. iNKT‐cell activation was assessed by measuring IFN‐γ production in the supernatant by ELISA.
Concentrations of murine IFN‐γ and IL‐4 in serum were determined using standard sandwich ELISAs using the R4‐6A2 capture Ab for IFN‐γ (eBioscience), and the ID11 capture Ab for IL‐4 (Endogen). Biotinylated XMG1.2 (eBioscience) was used as the detection Ab for IFN‐γ and biotinylated BVD6‐24G2 (eBioscience) was used as the detection Ab for IL‐4. Human IFN‐γ in supernatants was determined using the capture Ab NIB42 (BD Pharmingen) and biotinylated 4S.B3 (BD Pharmingen) as the detection Ab.
Human iNKT‐cells were expanded as described previously 34. […] The presence of IFN‐γ was detected in supernatants by ELISA 12. […] DC maturation was determined by the upregulation of CD86 by flow cytometry on a FACSCalibur with CellQuest software (BD) and analyzed with FlowJo software (Tree Star). For in vivo murine APC phenotype analysis the expression of CD86 or CD40 on CD11c^+ APCs from spleen were determined after 18 h post i.v. of 1 μg lipids on a CyAn cytometer and analyzed with FlowJo software (Tree Star).

Compound: CCCCCCCCCCCCCCCCCCCCCCCCCC(=O)N[C@@H](CO[C@H]1CC[C@H](O)[C@H](O)[C@H]1O)[C@H](O)[C@H](O)CCCCCCCCCCCCCC [ThrCer 6]
- Rejection of OVA‐expressing implanted tumors [1]: rejected
- OVA‐specific CD8+ T cells in blood (tetramer) in tumor‐bearing mice [1]: peptide‐specific response
- Kd [2]: 610 ± 100 nM
- koff [2]: 0.165 s⁻¹
- Koff, murine iNKT‐cell TCR from mCD1d/lipid complex [3]: 0.050 S^-1
- Kon, murine iNKT‐cell TCR to mCD1d/lipid complex [3]: 3.47 x10^4 M^-1 S^-1
- Kd [3]: 1440 ± 130 nM
- Activation of human iNKT cells (IFN‐γ in supernatant) [4]: greater activation of human iNKT cells

Compound: CCCCCCCCCCCCCCCCCCCCCCCCCC(=O)N[C@@H](CO[C@H]1O[C@H](CO)[C@H](O)[C@H](O)[C@H]1O)[C@H](O)[C@H](O)CCCCCCCCCCCCCC [α‐GalCer, α‐galactosylceramide, reference compound]
- OVA‐specific CD8+ T cells in blood (tetramer) in tumor‐bearing mice [1]: peptide‐specific response
- Kd [2]: 1120 ± 130 nM
- koff [2]: 0.41 s⁻¹
- Koff, murine iNKT‐cell TCR from mCD1d/lipid complex [3]: 0.059 S^-1
- Kon, murine iNKT‐cell TCR to mCD1d/lipid complex [3]: 3.93 x10^4 M^-1 S^-1
- Kd [3]: 1500 ± 160 nM

Compound: CCCCCCCCCCCCCCCCCCCCCCCCCC(=O)NC(COC1CCCC(O)C(O)C1O)C(O)C(O)CCCCCCCCCCCCCC (stereo not drawn) [ThrCer 7]
- OVA‐specific CD8+ T cells in blood (tetramer) in tumor‐bearing mice [1]: peptide‐specific response
- Kd [2]: 760 ± 80 nM
- koff [2]: 0.142 s⁻¹
- Koff, murine iNKT‐cell TCR from mCD1d/lipid complex [3]: 0.214 S^-1
- Kon, murine iNKT‐cell TCR to mCD1d/lipid complex [3]: 8.39 x10^4 M^-1 S^-1
- Kd [3]: 2550 ± 170 nM
- Activation of human iNKT cells (IFN‐γ in supernatant) [4]: greater activation of human iNKT cells
